Holding throughout (type): biochemical
The target in one assay is SALDan (Alteromonas naphthalenivorans, UniProt F5Z5S7). Description: Kinetics assay of wild-type recombinant SALDan (NADH appearance at 340 nm). The procedure:
(§1) The activity of the purified proteins was determined using SAL as a substrate. A reaction volume of 500 μL was prepared in a microfuge tube containing purified SALDan (0.1 μM), SAL (100 μM), and NAD^+ (100 μM) dissolved in 50 mM HEPES (pH 7.5) containing 150 mM NaCl. The SALDan activity was monitored as the rate of appearance of NADH at 340 nm spectrophotometrically. The specific activity of the enzyme (units.mg^−1.min^−1) was expressed as the amount of enzyme required to produce 1 μM of NADH under the assay conditions. The influence of pH on the activity was determined using the protocol described above, with the exception of replacing the […] buffer with 50 mM sodium acetate (pH 3.0–5.0), 50 mM 2-(N-morpholino)ethanesulfonic acid (pH 5.0–7.5), 50 mM HEPES (pH 8.0–8.5), 50 mM glycine (pH 9.0–10.0), or 50 mM sodium phosphate (pH 11.0)[52]. All assays were performed at the optimal temperature. To determine the influence of temperature on the enzymatic activity, the reactions were performed at 15, 20, 25, 30, 35, 40, and 45 °C, respectively.
(§2) For kinetic studies of aldehydes, the initial velocities of the enzymatic reactions were examined by varying the concentrations of various aromatic as well as aliphatic aldehydes in the presence of NAD^+ (100 μM) and the enzyme (0.1 μM) under optimal conditions. For substrates that absorb at 340 nm, thus interfering with the calculation of the initial rate, their molar coefficients (ε) were calculated as described previously[64] and are presented in Table S1. The apparent kinetic parameters were calculated using the equation: […]
(§3) The apparent kinetic parameters for NAD^+ were determined at a fixed concentration of SAL (50 μM) and a varying concentration of NAD^+ (0–500 μM). The apparent Km and Vmax values were calculated by using the equation: […]
(§4) All the activity data were determined by three separate experiments with at least three technical replicates.

A further assay deals with T1, SALDan V153A (Alteromonas naphthalenivorans, UniProt F5Z5S7, V153A).
T1 sequence (F5Z5S7 1-483 V153A): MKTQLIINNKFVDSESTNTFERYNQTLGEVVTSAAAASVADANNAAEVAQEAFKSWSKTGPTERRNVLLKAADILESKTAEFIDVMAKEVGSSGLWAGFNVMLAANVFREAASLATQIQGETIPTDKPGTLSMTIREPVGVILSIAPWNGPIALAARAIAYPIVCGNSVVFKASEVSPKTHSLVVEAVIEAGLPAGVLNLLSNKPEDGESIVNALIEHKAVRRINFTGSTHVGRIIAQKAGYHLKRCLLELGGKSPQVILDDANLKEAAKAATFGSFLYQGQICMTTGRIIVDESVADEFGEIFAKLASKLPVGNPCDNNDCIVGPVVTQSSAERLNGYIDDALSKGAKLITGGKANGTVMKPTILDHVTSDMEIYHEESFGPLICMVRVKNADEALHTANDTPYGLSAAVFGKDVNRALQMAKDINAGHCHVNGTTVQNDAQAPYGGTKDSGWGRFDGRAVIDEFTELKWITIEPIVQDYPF
Description: Kinetics assay of SALDan mutant V153A. The following applies: V153A mutant versus wild-type.
Description: (§5) The primers used for the single amino acid mutant were as follows: N149A, forward primer, 5′-ATAGCACCGTGGGCCGGGCCTATTGTATTA-3′; reverse primer, 5′-TAATACAATAGGCCCGGCCCACGGTGCTAT-3′; V153A, forward primer, 5′-AATGGGCCTATTGTATTAGCGGCTCGG-3′; reverse primer, 5′-CCGAGCCGCTAATACAATAGGCCCATT-3′; E175A, forward primer, 5′-[…]-3′, reverse primer, 5′-GTTGGGACAGTCTTCCAGCCC-3′; E175A, forward primer, 5′-ATGCTCCACCAAATTGGGCAC-3′; reverse primer, 5′-TTTAGGACTTACTTCTGAAGCTTTAAA-3′. The PCR was performed using Pfu polymerase, and the cycling parameters were: 95 °C for 5 min (one cycle), 95 °C for 30 s, and 68 °C for 12 min (12 cycles). After amplification, the PCR mixture was digested with DpnI and then transformed into E. coli BL21(DE3) by electroporation. The mutants were confirmed by DNA sequencing.
The activity of the purified proteins was determined using SAL as a substrate. […] The SALDan activity was monitored as the rate of appearance of NADH at 340 nm spectrophotometrically. The specific activity of the enzyme (units.mg^−1.min^−1) was expressed as the amount of enzyme required to produce 1 μM of NADH under the assay conditions. The influence of pH on the activity was determined using the protocol described above, with the exception of replacing the Tris-HCl buffer with 50 mM sodium acetate (pH 3.0–5.0), 50 mM 2-(N-morpholino)ethanesulfonic acid (pH 5.0–7.5), 50 mM HEPES (pH 8.0–8.5), 50 mM glycine (pH 9.0–10.0), or 50 mM sodium phosphate (pH 11.0)[52]. […]
as §2

For the next assay, the target named is T2, SALDan E175A (Alteromonas naphthalenivorans, UniProt F5Z5S7, E175A).
T2 sequence (F5Z5S7 1-483 E175A): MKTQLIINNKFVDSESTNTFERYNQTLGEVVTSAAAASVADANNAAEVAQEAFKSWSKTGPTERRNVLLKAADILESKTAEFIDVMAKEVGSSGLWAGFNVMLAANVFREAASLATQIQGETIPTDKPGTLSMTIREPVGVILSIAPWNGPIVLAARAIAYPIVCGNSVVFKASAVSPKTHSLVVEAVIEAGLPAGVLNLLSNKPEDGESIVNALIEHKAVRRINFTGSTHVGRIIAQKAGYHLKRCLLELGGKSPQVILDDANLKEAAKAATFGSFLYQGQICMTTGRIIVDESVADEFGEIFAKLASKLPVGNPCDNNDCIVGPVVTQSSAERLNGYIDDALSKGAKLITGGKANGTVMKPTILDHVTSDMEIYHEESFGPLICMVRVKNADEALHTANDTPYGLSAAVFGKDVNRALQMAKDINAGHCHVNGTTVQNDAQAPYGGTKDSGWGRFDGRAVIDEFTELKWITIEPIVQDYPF
Description: Kinetics assay of SALDan mutant E175A.
Description: as §5, §1, §2, §3, §4

[1] abbreviates: wild-type, “—” means not observed, read-out: App Ki (substrate inhibition).
Where [2] appears, read: wild-type, aldehyde varied at NAD^+ 100 μM, enzyme 0.1 μM, for NAD^+: SAL fixed 50 μM.

Each structure is given as a SMILES string. Where two headings read alike, the source gives them in different places.

Sequence of SALDan (F5Z5S7 entry or part of it): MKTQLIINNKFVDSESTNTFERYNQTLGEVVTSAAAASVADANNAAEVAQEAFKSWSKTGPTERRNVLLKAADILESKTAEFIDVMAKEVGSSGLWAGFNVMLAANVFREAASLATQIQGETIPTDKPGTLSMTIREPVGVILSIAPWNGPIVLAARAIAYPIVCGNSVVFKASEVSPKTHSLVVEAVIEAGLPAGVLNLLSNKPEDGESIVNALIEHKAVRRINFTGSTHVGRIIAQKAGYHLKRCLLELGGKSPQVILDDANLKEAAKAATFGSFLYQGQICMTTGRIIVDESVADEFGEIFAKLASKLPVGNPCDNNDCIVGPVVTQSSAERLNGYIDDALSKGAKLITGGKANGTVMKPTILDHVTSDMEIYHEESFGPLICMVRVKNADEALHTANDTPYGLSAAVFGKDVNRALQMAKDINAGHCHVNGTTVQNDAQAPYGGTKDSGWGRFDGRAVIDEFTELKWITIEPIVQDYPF

As to `O=Cc1ccccc1Cl` [2-Chlorobenzaldehyde], the Ki on SALDan worked out at 356 ± 40.1 µM.

Turning to `O=Cc1ccccc1` [Benzaldehyde], the Ki on SALDan is 563 ± 87.6 µM.

Turning to `O=Cc1cccc(Cl)c1` [3-Chlorobenzaldehyde], on SALDan (setting [1]), the Ki stood at 124 ± 20.1 µM.

As for `O=Cc1ccc2ccccc2c1` [2-Naphthaldehyde], at SALDan (setting [1]), the Ki is 249 ± 22.5 µM.

Turning to `NC(=O)c1ccc[n+]([C@@H]2O[C@H](COP(=O)([O-])OP(=O)(O)OC[C@H]3O[C@@H](n4cnc5c(N)ncnc54)[C@H](O)[C@@H]3O)[C@@H](O)[C@H]2O)c1` [NAD^+, nicotinamide adenine dinucleotide], on SALDan V153A, the “effect on the kinetic parameters” value is given as “no significant effect”. Moreover, on SALDan E175A (E175A mutant versus wild-type), the “change of apparent Km value” is listed as “increased by about two times” and the “change of kcat/Km (catalytic efficiency)” value was “decreased by four times”. Further, on SALDan E175A (mutation of Glu175 versus wild-type (Discussion)), the “increase of Km” value stood at 5 fold.

The term Km denotes the substrate concentration at which the rate is half of its maximum. In the case of `CCCC=O` [Butyraldehyde], on SALDan (setting [2]), the “App Vmax” value is on record as 5.9 ± 1.0 U/mg and the App kcat turned out to be 14.3 ± 2.8 s⁻¹. Also, at SALDan (wild-type, aldehyde varied at NAD^+ 100 μM, enzyme 0.1 μM, for NAD^+: SAL fixed 50 μM, NAD^+ 0–500 μM, read-out: App Km), the Km was 3.2 ± 0.235 mM.
